Source: PubChem BioAssay (NCI)
Several values for one entry are separate records, joined by “and”; a condition that tells them apart may be missing. Equal values may be shown once.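 96-well plates; 48 h exposure; 5 concentrations. Endpoints by linear interpolation between flanking doses. Not reached: highest tested concentration assigned. At the GI50, growth is halved. TGI is the concentration that stops growth completely.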

Columns and labels:
Experiment in all cases: growth of human tumour cells (NCI), 48 h
COLO 205 colon = test system: COLO 205 colon
HCC-2998 colon = test system: HCC-2998 colon
HL-60(TB) leukemia = test system: HL-60(TB) leukemia
K-562 leukemia = test system: K-562 leukemia
KM12 colon = test system: KM12 colon
MCF7 breast = test system: MCF7 breast
NCI/ADR-RES ovarian = test system: NCI/ADR-RES ovarian
SF-268 CNS = test system: SF-268 CNS
SR leukemia = test system: SR leukemia
T-47D breast = test system: T-47D breast

Structure (SMILES): CCSCC1CC(O)(c2ccccc2)C(c2ccccc2)C(c2ccc(F)cc2)O1 (stereo unspecified)
- GI50 (COLO 205 colon): 1.81 µM
- TGI (COLO 205 colon): 3.84 µM
- GI50 (HCC-2998 colon): 2.23 µM
- TGI (HCC-2998 colon): 4.58 µM
- GI50 (HL-60(TB) leukemia): 1.7 µM
- TGI (HL-60(TB) leukemia): 6.33 µM
- GI50 (K-562 leukemia): 2.11 µM
- TGI (K-562 leukemia): 6.53 µM
- GI50 (KM12 colon): 1.9 µM
- TGI (KM12 colon): 3.81 µM
- GI50 (MCF7 breast): 2.25 µM
- TGI (MCF7 breast): 6.81 µM
- GI50 (NCI/ADR-RES ovarian): 1.89 µM
- TGI (NCI/ADR-RES ovarian): 6.67 µM
- GI50 (SF-268 CNS): 2.15 µM
- TGI (SF-268 CNS): 5.45 µM
- GI50 (SR leukemia): 1.98 µM
- TGI (SR leukemia): 5.85 µM
- GI50 (T-47D breast): 1.56 µM
- TGI (T-47D breast): 4.8 µM

Structure (SMILES): CCC(c1ccccc1)c1noc(CCN(CC)CC)n1 (stereo unspecified)
- GI50 (COLO 205 colon): 17.5 µM
- TGI (COLO 205 colon): 34.5 µM
- GI50 (HCC-2998 colon): 50.1 µM
- TGI (HCC-2998 colon): > 100 µM
- GI50 (HL-60(TB) leukemia): 18.1 µM
- TGI (HL-60(TB) leukemia): 54.5 µM
- GI50 (K-562 leukemia): 25.8 µM
- TGI (K-562 leukemia): > 100 µM
- GI50 (KM12 colon): 22.8 µM
- TGI (KM12 colon): > 56.1 µM
- GI50 (MCF7 breast): 8.98 µM
- TGI (MCF7 breast): 76.2 µM
- GI50 (NCI/ADR-RES ovarian): 39.1 µM
- TGI (NCI/ADR-RES ovarian): > 100 µM
- GI50 (SF-268 CNS): 35.1 µM
- TGI (SF-268 CNS): > 100 µM
- GI50 (SR leukemia): 37.5 µM
- TGI (SR leukemia): > 100 µM
- GI50 (T-47D breast): 13.1 µM
- TGI (T-47D breast): 76.2 µM

Structure (SMILES): Nc1nccc(-c2c(-c3ccc(F)cc3)nn3cc(C(F)(F)F)ccc23)n1
- GI50 (COLO 205 colon): > 25 µM
- TGI (COLO 205 colon): > 25 µM
- GI50 (HCC-2998 colon): > 25 µM
- TGI (HCC-2998 colon): > 25 µM
- GI50 (HL-60(TB) leukemia): > 25 µM
- TGI (HL-60(TB) leukemia): > 25 µM
- GI50 (K-562 leukemia): > 25 µM
- TGI (K-562 leukemia): > 25 µM
- GI50 (KM12 colon): > 25 µM
- TGI (KM12 colon): > 25 µM
- GI50 (MCF7 breast): > 25 µM
- TGI (MCF7 breast): > 25 µM
- GI50 (NCI/ADR-RES ovarian): > 25 µM
- TGI (NCI/ADR-RES ovarian): > 25 µM
- GI50 (SF-268 CNS): > 25 µM
- TGI (SF-268 CNS): > 25 µM
- GI50 (SR leukemia): > 25 µM
- TGI (SR leukemia): > 25 µM
- GI50 (T-47D breast): > 25 µM
- TGI (T-47D breast): > 25 µM

Structure (SMILES): COc1cc(C(=O)/C=C/c2cccc(Nc3ccnc4cc(Cl)ccc34)c2)cc(OC)c1OC
- GI50 (COLO 205 colon): 1.34 µM
- TGI (COLO 205 colon): 3.69 µM
- GI50 (HCC-2998 colon): 1.72 µM
- TGI (HCC-2998 colon): 3.21 µM
- GI50 (HL-60(TB) leukemia): 1.82 µM
- TGI (HL-60(TB) leukemia): 4.52 µM
- GI50 (K-562 leukemia): 0.403 µM
- TGI (K-562 leukemia): 3.23 µM
- GI50 (MCF7 breast): 0.609 µM
- TGI (MCF7 breast): 2.06 µM
- GI50 (NCI/ADR-RES ovarian): 0.409 µM
- TGI (NCI/ADR-RES ovarian): 2.94 µM
- GI50 (SR leukemia): 0.324 µM
- TGI (SR leukemia): 1.42 µM
- GI50 (T-47D breast): 1.22 µM
- TGI (T-47D breast): 3.17 µM

Structure (SMILES): CN(C)c1ccc(-c2cc(-c3ccc(Nc4nc(Nc5ccc(Cl)cc5)nc(Nc5ccc(Cl)cc5)n4)cc3)nc(N)c2C#N)cc1
- GI50 (COLO 205 colon): 7.88 µM
- TGI (COLO 205 colon): > 100 µM
- GI50 (HCC-2998 colon): 99.4 µM
- TGI (HCC-2998 colon): > 100 µM
- GI50 (HL-60(TB) leukemia): 10.6 µM
- TGI (HL-60(TB) leukemia): > 100 µM
- GI50 (K-562 leukemia): 5.2 µM
- TGI (K-562 leukemia): > 100 µM
- GI50 (KM12 colon): 10.3 µM
- TGI (KM12 colon): > 100 µM
- GI50 (MCF7 breast): 2.38 µM
- TGI (MCF7 breast): 47.7 µM
- GI50 (NCI/ADR-RES ovarian): > 100 µM
- TGI (NCI/ADR-RES ovarian): > 100 µM
- GI50 (SF-268 CNS): 40.3 µM
- TGI (SF-268 CNS): > 100 µM
- GI50 (SR leukemia): 1.32 µM
- TGI (SR leukemia): 9.83 µM
- GI50 (T-47D breast): 7.59 µM
- TGI (T-47D breast): > 100 µM

Structure (SMILES): CC[C@H](C)[C@H](NC(=O)[C@H]1CCCCN1C)C(=O)N(C)[C@H](C[C@@H](OC(C)=O)c1nc(C(=O)NC23CC(C(=O)OC)(C2)C3)cs1)C(C)C
- GI50 (COLO 205 colon): 0.00152 µM and 0.00325 µM
- TGI (COLO 205 colon): 0.0299 µM and 0.0339 µM
- GI50 (HCC-2998 colon): 0.00299 µM and 0.00325 µM
- TGI (HCC-2998 colon): > 32.5 µM
- GI50 (HL-60(TB) leukemia): 0.000186 µM and < 0.00325 µM
- TGI (HL-60(TB) leukemia): 0.000698 µM and < 0.00325 µM
- TGI (K-562 leukemia): > 32.5 µM
- GI50 (KM12 colon): 0.00319 µM and 0.00325 µM
- TGI (KM12 colon): 6.6 µM
- TGI (MCF7 breast): > 32.5 µM
- GI50 (NCI/ADR-RES ovarian): 0.0522 µM and 0.0479 µM
- TGI (NCI/ADR-RES ovarian): 0.371 µM
- GI50 (SF-268 CNS): 0.000937 µM and 0.00325 µM
- TGI (SF-268 CNS): > 32.5 µM
- TGI (SR leukemia): > 32.5 µM
- GI50 (T-47D breast): 0.000499 µM

Structure (SMILES): CCO/C=C1\SC(=S)N(c2ccc(OCC)cc2)C1=O
- TGI (COLO 205 colon): > 100 µM
- TGI (HCC-2998 colon): > 100 µM
- TGI (HL-60(TB) leukemia): > 100 µM
- TGI (K-562 leukemia): > 100 µM
- TGI (KM12 colon): > 100 µM
- TGI (MCF7 breast): > 100 µM
- TGI (NCI/ADR-RES ovarian): > 100 µM
- TGI (SF-268 CNS): > 100 µM
- TGI (SR leukemia): > 100 µM
- TGI (T-47D breast): > 100 µM

Structure (SMILES): O=C(COc1ccc(/C=C2\Oc3ccccc3C2=O)cc1)Nc1nc2ccccc2s1
- GI50 (COLO 205 colon): 32 µM
- TGI (COLO 205 colon): > 89.8 µM
- GI50 (HCC-2998 colon): 33.1 µM
- TGI (HCC-2998 colon): > 100 µM
- GI50 (HL-60(TB) leukemia): 1.68 µM
- TGI (HL-60(TB) leukemia): 3.51 µM
- GI50 (K-562 leukemia): 16.7 µM
- TGI (K-562 leukemia): > 100 µM
- GI50 (KM12 colon): 2.09 µM
- TGI (KM12 colon): > 100 µM
- GI50 (MCF7 breast): 35.6 µM
- TGI (MCF7 breast): > 100 µM
- GI50 (NCI/ADR-RES ovarian): 2.92 µM
- TGI (NCI/ADR-RES ovarian): > 100 µM
- GI50 (SR leukemia): 2.38 µM
- TGI (SR leukemia): 8.57 µM
- GI50 (T-47D breast): 41.4 µM
- TGI (T-47D breast): > 100 µM

Structure (SMILES): CC(=O)NC1C(O[C@H]2C[C@H]3[C@@H]4CC=C5C[C@@H](O)CC[C@]5(C)[C@H]4CC[C@]3(C)[C@H]2[C@H](C)C(=O)CCC(C)C)OCC(O)C1O (stereo partly specified)
- GI50 (COLO 205 colon): 2.13 µM
- TGI (COLO 205 colon): 8.75 µM
- GI50 (HCC-2998 colon): 6.46 µM
- TGI (HCC-2998 colon): 14.6 µM
- GI50 (K-562 leukemia): 1.35 µM
- TGI (K-562 leukemia): 5.16 µM
- GI50 (KM12 colon): 6.27 µM
- TGI (KM12 colon): > 42.5 µM
- GI50 (MCF7 breast): 2.44 µM
- TGI (MCF7 breast): 10.4 µM
- GI50 (NCI/ADR-RES ovarian): 13.1 µM
- TGI (NCI/ADR-RES ovarian): > 42.5 µM
- GI50 (SF-268 CNS): 2.31 µM
- TGI (SF-268 CNS): 11.2 µM
- GI50 (SR leukemia): 1.56 µM
- TGI (SR leukemia): 22.8 µM
- GI50 (T-47D breast): 2.28 µM
- TGI (T-47D breast): 30.9 µM

Structure (SMILES): COCCN(CCOC)c1nc(-c2ccccc2)nc2ccccc12
- GI50 (COLO 205 colon): 28.2 µM
- TGI (COLO 205 colon): > 100 µM
- GI50 (HL-60(TB) leukemia): 30.3 µM
- TGI (HL-60(TB) leukemia): > 100 µM
- GI50 (K-562 leukemia): 36.1 µM
- TGI (K-562 leukemia): > 100 µM
- GI50 (KM12 colon): 18.6 µM
- TGI (KM12 colon): 47.2 µM
- GI50 (MCF7 breast): 20.6 µM
- TGI (MCF7 breast): 55.7 µM
- GI50 (NCI/ADR-RES ovarian): 21.3 µM
- TGI (NCI/ADR-RES ovarian): 61.2 µM
- GI50 (SF-268 CNS): 19.7 µM
- TGI (SF-268 CNS): 62.4 µM
- GI50 (SR leukemia): 34.4 µM
- TGI (SR leukemia): > 100 µM
- GI50 (T-47D breast): 26.9 µM
- TGI (T-47D breast): > 100 µM
